# Reference: ChEMBL document CHEMBL5247642, “Structural Optimization of Fibroblast Growth Factor Receptor Inhibitors for Treating Solid Tumors” (J Med Chem, 2023)
# pIC50: −log10 of the molar value. Calls of active or inactive are those of the source. The calls are words filed in the database; no cut-off is given here.
# Legend:
# [1] = AUC (0 to infinity) in CD-1 mouse at 3 mg/kg, po measured after 24 hrs by LC-MS/MS analysis; type: ADME, organism-based; set-up: time 24 hrs, dose 3 mg/kg, route po; conditions: in vivo
# [2] = AUC (0 to infinity) in CD-1 mouse at 1 mg/kg, iv measured after 24 hrs by LC-MS/MS analysis; type: ADME, organism-based; set-up: dose 1 mg/kg, time 24 hrs, route iv; conditions: in vivo
# [3] = molecular target: T1, Fibroblast growth factor receptor (Homo sapiens) (UniProt P22607+P11362+P22455+P21802); test: Inhibition of FGFR signalling in human SNU-16 assessed as inhibition of pErk phosphorylation at 0.1 nM incubated for 2 hrs by Western blot analysis; type: cell-based
# T1 sequence (P11362 whole entry, looked up): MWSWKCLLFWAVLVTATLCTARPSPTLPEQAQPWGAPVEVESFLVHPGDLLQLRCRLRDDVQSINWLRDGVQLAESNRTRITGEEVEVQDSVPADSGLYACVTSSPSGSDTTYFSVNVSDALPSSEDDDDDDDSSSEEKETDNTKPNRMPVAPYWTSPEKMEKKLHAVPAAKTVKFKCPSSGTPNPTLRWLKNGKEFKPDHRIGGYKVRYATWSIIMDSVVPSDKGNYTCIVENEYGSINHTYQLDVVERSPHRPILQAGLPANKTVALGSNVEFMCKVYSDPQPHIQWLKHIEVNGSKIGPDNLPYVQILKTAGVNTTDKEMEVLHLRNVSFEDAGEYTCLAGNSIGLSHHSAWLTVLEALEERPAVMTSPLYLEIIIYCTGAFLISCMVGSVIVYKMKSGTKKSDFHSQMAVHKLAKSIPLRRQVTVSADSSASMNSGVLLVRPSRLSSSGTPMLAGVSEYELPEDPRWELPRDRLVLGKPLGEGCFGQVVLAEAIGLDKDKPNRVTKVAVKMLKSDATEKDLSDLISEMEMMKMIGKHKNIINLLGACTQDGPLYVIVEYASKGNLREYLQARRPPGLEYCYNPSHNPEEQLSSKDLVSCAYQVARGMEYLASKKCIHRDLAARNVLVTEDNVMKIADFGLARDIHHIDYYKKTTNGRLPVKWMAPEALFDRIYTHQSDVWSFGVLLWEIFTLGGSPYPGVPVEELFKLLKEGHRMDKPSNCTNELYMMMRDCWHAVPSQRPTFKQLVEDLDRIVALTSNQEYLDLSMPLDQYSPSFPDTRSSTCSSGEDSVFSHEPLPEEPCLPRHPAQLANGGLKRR
# T1 sequence (P21802 whole entry, looked up): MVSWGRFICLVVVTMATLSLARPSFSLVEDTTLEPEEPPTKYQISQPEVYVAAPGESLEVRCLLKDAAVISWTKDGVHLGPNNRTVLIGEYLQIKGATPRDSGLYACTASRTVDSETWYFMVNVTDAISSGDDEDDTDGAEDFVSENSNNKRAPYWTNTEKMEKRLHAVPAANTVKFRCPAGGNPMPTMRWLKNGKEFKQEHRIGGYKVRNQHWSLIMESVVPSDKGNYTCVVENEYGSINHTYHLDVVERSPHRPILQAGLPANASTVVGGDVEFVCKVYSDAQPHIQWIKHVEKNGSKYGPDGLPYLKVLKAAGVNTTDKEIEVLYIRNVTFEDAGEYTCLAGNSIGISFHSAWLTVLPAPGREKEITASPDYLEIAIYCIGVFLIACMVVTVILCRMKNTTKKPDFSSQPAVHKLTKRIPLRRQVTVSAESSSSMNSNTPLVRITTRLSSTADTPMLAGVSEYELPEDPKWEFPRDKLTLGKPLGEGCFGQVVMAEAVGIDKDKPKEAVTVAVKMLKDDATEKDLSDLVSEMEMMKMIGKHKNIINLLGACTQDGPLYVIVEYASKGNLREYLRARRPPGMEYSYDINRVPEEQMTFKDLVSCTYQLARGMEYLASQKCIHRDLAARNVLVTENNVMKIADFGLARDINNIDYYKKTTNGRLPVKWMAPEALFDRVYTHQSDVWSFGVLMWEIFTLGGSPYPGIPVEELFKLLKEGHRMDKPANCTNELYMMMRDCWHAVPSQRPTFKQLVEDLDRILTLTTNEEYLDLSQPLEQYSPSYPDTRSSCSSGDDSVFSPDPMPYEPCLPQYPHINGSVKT
# T1 sequence (P22455 whole entry, looked up): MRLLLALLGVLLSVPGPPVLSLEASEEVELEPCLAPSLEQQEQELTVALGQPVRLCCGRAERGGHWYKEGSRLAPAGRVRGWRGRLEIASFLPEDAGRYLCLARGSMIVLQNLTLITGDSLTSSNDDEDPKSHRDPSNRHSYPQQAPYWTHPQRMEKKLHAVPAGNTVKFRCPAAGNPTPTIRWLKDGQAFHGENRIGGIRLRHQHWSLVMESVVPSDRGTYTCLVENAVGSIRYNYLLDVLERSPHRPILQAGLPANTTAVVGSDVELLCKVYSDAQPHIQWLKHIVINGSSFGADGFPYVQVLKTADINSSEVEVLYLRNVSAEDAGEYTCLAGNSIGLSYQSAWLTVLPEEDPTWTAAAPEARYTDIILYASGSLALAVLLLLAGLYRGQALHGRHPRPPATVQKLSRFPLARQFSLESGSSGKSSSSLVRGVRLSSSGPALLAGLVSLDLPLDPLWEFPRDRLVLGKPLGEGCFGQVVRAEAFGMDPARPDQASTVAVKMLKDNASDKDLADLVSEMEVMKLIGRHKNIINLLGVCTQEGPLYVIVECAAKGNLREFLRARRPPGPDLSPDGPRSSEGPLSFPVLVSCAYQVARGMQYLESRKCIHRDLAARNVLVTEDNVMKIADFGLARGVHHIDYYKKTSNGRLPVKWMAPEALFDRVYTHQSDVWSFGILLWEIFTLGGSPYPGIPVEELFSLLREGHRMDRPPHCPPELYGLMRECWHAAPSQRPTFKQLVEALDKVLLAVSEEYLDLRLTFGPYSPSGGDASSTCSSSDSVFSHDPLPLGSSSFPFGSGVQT
# T1 sequence (P22607 whole entry, looked up): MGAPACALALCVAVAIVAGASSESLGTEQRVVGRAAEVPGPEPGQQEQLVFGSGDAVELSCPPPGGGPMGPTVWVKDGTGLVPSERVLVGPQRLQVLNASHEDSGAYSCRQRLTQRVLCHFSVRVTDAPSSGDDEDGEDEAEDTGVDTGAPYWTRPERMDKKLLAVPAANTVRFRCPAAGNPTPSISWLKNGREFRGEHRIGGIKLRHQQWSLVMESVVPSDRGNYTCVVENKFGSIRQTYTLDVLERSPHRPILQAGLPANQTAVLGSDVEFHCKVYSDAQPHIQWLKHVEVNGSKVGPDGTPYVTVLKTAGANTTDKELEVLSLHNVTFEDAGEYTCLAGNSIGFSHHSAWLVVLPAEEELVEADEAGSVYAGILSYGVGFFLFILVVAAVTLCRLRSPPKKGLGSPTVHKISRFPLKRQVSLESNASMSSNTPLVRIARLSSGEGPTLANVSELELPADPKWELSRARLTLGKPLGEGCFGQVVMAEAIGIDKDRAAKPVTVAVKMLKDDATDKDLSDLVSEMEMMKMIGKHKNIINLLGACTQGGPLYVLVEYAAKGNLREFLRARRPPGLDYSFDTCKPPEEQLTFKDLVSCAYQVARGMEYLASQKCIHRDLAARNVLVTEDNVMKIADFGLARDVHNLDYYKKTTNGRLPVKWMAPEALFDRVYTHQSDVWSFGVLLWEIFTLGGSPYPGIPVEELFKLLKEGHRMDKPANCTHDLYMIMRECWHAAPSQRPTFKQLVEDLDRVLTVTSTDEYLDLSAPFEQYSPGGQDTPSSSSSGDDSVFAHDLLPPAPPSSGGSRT
# HCC78 = test: Antiproliferative activity against human HCC78 cells assessed as reduction in cell viability measured after 72 hrs; type: functional, cell-based; conditions: HCC78, 72 h
# NCI-H526 = test: Antiproliferative activity against human NCI-H526 cells assessed as reduction in cell viability measured after 72 hrs; type: functional, cell-based; conditions: NCI-H526, 72 h
# [4] = MRT in CD-1 mouse at 1 mg/kg, iv measured after 24 hrs by LC-MS/MS analysis; type: ADME, organism-based; conditions: in vivo
# [5] = molecular target: Voltage-gated inwardly rectifying potassium channel KCNH2 (Homo sapiens, UniProt Q12809); test: Inhibition of hERG expressed in CHO cells at -80 mV holding potential by automated patch clamp method; type: toxicity, cell-based
# Voltage-gated inwardly rectifying potassium channel KCNH2, sequence (Q12809 whole entry): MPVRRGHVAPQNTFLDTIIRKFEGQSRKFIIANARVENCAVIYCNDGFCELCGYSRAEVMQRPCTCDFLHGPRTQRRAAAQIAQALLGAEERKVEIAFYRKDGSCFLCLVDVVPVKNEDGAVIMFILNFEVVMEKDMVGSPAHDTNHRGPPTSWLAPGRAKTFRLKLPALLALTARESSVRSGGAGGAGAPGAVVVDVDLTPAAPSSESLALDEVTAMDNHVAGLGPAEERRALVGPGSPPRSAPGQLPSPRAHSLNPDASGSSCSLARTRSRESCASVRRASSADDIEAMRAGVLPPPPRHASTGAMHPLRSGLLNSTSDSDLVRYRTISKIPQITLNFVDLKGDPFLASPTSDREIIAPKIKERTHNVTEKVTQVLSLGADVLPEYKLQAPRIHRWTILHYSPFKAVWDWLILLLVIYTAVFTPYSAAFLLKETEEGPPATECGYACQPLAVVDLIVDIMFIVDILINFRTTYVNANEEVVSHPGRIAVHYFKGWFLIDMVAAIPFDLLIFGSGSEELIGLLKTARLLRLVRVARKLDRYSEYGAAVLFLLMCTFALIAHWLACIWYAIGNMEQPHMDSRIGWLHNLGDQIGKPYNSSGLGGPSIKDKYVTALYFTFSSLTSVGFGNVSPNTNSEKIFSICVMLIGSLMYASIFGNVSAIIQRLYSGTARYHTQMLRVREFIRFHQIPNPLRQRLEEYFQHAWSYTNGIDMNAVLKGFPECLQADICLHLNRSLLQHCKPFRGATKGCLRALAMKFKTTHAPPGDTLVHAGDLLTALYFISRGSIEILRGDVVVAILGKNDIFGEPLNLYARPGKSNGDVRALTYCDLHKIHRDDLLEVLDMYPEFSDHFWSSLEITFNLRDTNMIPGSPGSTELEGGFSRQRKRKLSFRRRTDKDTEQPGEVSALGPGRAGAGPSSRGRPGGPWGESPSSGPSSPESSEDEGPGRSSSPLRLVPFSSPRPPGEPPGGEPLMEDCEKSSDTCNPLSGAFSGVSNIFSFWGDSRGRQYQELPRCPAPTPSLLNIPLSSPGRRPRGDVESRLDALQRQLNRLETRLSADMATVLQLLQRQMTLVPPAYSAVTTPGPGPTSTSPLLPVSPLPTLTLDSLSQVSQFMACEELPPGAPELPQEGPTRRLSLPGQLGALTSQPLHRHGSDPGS
# [6] = Stability in rat whole blood assessed as parent compound remaining measured after 2 hrs by LC-MS/MS analysis; type: ADME, tissue-based; conditions: read-out: Stability
# NCI-H441 = test: Antiproliferative activity against human NCI-H441 cells assessed as reduction in cell viability measured after 72 hrs; type: functional, cell-based; conditions: NCI-H441, 72 h
# NCI-H3122 = test: Antiproliferative activity against human NCI-H3122 cells assessed as reduction in cell viability measured after 72 hrs; type: functional, cell-based; conditions: NCI-H3122, 72 h
# [7] = molecular target: T1, Fibroblast growth factor receptor (Homo sapiens); test: Inhibition of FGFR signalling in human SNU-16 assessed as inhibition of PLCgamma phosphorylation at 0.1 nM incubated for 2 hrs by Western blot analysis; type: cell-based
# OPM-2 = test: Antiproliferative activity against human OPM-2 cells expressing FGFR3 assessed as reduction in cell viability measured after 72 hrs; type: functional, cell-based; conditions: OPM-2, 72 h
# HCC4006 = test: Antiproliferative activity against human HCC4006 cells assessed as reduction in cell viability measured after 72 hrs; type: functional, cell-based; conditions: HCC4006, 72 h
# NCI-H1581 [8] = test: Antitumor activity against human NCI-H1581 cells xenografted in po dosed nude mouse assessed as tumor growth inhibition administered once daily for 11 days by microcaliper analysis; type: functional, organism-based; conditions: dose 200-400 mg/kg, time 11.0 day
# [9] = molecular target: Fibroblast growth factor receptor 3 (Homo sapiens, UniProt P22607, V555M); test: Inhibition of FGFR3 V555M mutant (unknown origin)
# NCI-H520 = test: Antiproliferative activity against human NCI-H520 cells assessed as reduction in cell viability measured after 72 hrs; type: functional, cell-based; conditions: NCI-H520, 72 h
# [10] = molecular target: Fibroblast growth factor receptor 2 (Homo sapiens, UniProt P21802, N549H); test: Inhibition of human recombinant FGFR2 N549H mutant (456 to 770 residues) using GGEEEEYFELVKK as substrate incubated for 40 mins presence of [gamma-33P]-ATP by radiometric based scintillation counter assay
# NCI-H522 = test: Antiproliferative activity against human NCI-H522 cells assessed as reduction in cell viability measured after 72 hrs; type: functional, cell-based; conditions: NCI-H522, 72 h
# PANC-1 = test: Antiproliferative activity against human PANC-1 cells assessed as reduction in cell viability measured after 72 hrs; type: functional, cell-based; conditions: PANC-1, 72 h
# NCI-H716 [11] = test: Antitumor activity against human NCI-H716 cells xenografted in nude mouse assessed as tumor growth inhibition at 400 mg/kg, po administered once daily for 18 days by microcaliper analysis; type: functional, organism-based; conditions: time 18.0 day
# [12] = Oral bioavailability in CD-1 mouse at 3 mg/kg measured after 24 hrs by LC-MS/MS analysis; type: ADME, organism-based; conditions: in vivo
# BXPC-3 = test: Antiproliferative activity against human BXPC-3 cells assessed as reduction in cell viability measured after 72 hrs; type: functional, cell-based; conditions: BXPC-3, 72 h
# NCI-H727 = test: Antiproliferative activity against human NCI-H727 cells assessed as reduction in cell viability measured after 72 hrs; type: functional, cell-based; conditions: NCI-H727, 72 h
# NCI-H1299 = test: Antiproliferative activity against human NCI-H1299 cells assessed as reduction in cell viability measured after 72 hrs; type: functional, cell-based; conditions: NCI-H1299, 72 h
# [13] = Toxicity in nude mouse xenografted with human SNU-16 cells assessed as body weight loss at 200 to 400 mg/kg, po administered once daily for 21 days; type: organism-based; conditions: in vivo, 504 h, dose 200-400 mg/kg, time 21 day
# [14] = molecular target: Fibroblast growth factor receptor 2 (Homo sapiens, UniProt P21802); test: Inhibition of FGFR2 (unknown origin) using Poly (Glu,Tyr) 4:1 as substrate incubated for 60 mins in presence of ATP by ELISA analysis
# Fibroblast growth factor receptor 2 (Homo sapiens, UniProt P21802), sequence (P21802 whole entry): as the sequence (P21802 whole entry, looked up) above
# NCI-H1581 [15] = test: Antiproliferative activity against human NCI-H1581 cells expressing FGFR1 assessed as reduction in cell viability measured after 72 hrs; type: functional, cell-based; conditions: NCI-H1581, 72 h
# BaF3 = test: Antiproliferative activity against mouse BaF3 cells assessed as reduction in cell viability measured after 72 hrs; type: functional, cell-based; conditions: BaF3, 72 h
# [16] = MRT in CD-1 mouse at 3 mg/kg, po measured after 24 hrs by LC-MS/MS analysis; type: ADME, organism-based; conditions: in vivo
# [17] = molecular target: Fibroblast growth factor receptor 4 (Homo sapiens, UniProt P22455); test: Inhibition of FGFR4 (unknown origin)
# Fibroblast growth factor receptor 4, sequence (P22455 whole entry): as the sequence (P22455 whole entry, looked up) above
# [18] = molecular target: Fibroblast growth factor receptor 2 (Homo sapiens, UniProt P21802, V564F); test: Inhibition of FGFR2 V564F mutant (unknown origin)
# SNU-16 = test: Antitumor activity against human SNU-16 cells xenografted in nude mouse assessed as tumor growth inhibition at 200 mg/kg, po administered once daily for 21 days by microcaliper analysis relative to control; type: functional; set-up: scale not given: the % may be the effect or the level left; conditions: time 21 day
# [19] = molecular target: Fibroblast growth factor receptor 1 (Homo sapiens, UniProt P11362); conditions: dose 10.0 nM, time 60.0 min
# ASPC1 = test: Antiproliferative activity against human ASPC1 cells assessed as reduction in cell viability measured after 72 hrs; type: functional, cell-based; conditions: ASPC1, 72 h
# NCI-H716 [20] = test: Antitumor activity against human NCI-H716 cells xenografted in nude mouse assessed as tumor growth inhibition at 200 mg/kg, po administered once daily for 18 days by microcaliper analysis relative to control; type: functional; set-up: scale not given: the % may be the effect or the level left; conditions: time 18 day
# [21] = molecular target: Vascular endothelial growth factor receptor 2 (Homo sapiens) (UniProt P35968); test: Inhibition of VEGFR2 (unknown origin) at 1 uM using Poly (Glu,Tyr) 4:1 as substrate incubated for 60 mins in presence of ATP by ELISA analysis relative to control
# [22] = Solubility of compound in PBS at pH 7.4 at 1 to 100 microg/ml by laser nephelometry analysis; type: physicochemical; conditions: dose 1-100 µg/ml
# [23] = Cmax in CD-1 mouse at 3 mg/kg, po measured after 24 hrs by LC-MS/MS analysis; type: ADME, organism-based; set-up: time 24 hrs, dose 3 mg/kg, route po; conditions: in vivo
structure (smiles),measurement,setting,value
C=CC(=O)N1CCCC(n2nc3c(=O)[nH]nc(N)c3c2-c2oc3ccc(C)cc3c2C)C1 (stereo not drawn),AUC(0-inf),[1],75.4 ng·h/mL
same,AUC,[2],116 ng·h/mL
same,inhibition,[3],Active
same,pIC50,HCC78,< 5.00
same,pIC50,NCI-H526,< 5.00
same,MRT,[4],15.1 min
same,pIC50,[5],4.77
same,remaining at 2 h,[6],> 40%
same,pIC50,NCI-H441,< 5.00
same,pIC50,NCI-H3122,< 5.00
same,inhibition,[7],Active
same,pIC50,OPM-2,6.52
same,pIC50,HCC4006,< 5.00
same,Activity,NCI-H1581 [8],Dose-Dependent Effect
same,pIC50,[9],5.70
same,pIC50,NCI-H520,< 5.00
same,pIC50,[10],7.80
same,pIC50,NCI-H522,< 5.00
same,pIC50,PANC-1,< 5.00
same,Activity,NCI-H716 [11],Active
same,bioavailability,[12],20.4%
same,pIC50,BXPC-3,< 5.00
same,pIC50,NCI-H727,< 5.00
same,pIC50,NCI-H1299,< 5.00
same,Activity,[13],Non-Toxic
same,pIC50,[14],7.87
same,pIC50,NCI-H1581 [15],7.26
same,pIC50,BaF3,< 5.00
same,MRT,[16],69.6 min
same,pIC50,[17],8.21
same,pIC50,[18],5.54
same,Activity,SNU-16,68.4%
same,inhibition,[19],80.9%
same,pIC50,ASPC1,< 5.00
same,Activity,NCI-H716 [20],83.5%
same,inhibition,[21],< 50%
same,solubility kinetic,[22],50 µg/mL
same,Cmax,[23],174 ng/mL
